This is an account of results in paper PMC4939875 (Nature, 2016).

For one experiment, the system named is TONSL ARD. Put plainly: GST-histone tail pull-down with recombinant TONSL ARD. In kind it is binding, human. The following applies: GST-H3 tail (1–59), GST-H4 tail (1–31); 20 mM Tris pH 7.5, 0.5 M NaCl; SDS-PAGE.
Experiment [1] deals with TONSL acidic stretch and ARD (a.a. 450-692). Nature of the experiment: ITC of TONSL acidic stretch and ARD. The experiment is classed as binding, human. The following applies: TONSL a.a. 450-692, H3K9me1 (a.a. 1-21), 20 mM Tris pH 7.5, 0.5 M NaCl.

Turning to “GST-H4 tail: GST-tagged human histone H4 fragment 1–31”, the “binding of TONSL ARD to GST-histone tail” value with TONSL ARD is on record as “binds”.
Regarding “H3K9me1: peptide of H3(1-21)K9me1 (mono-methylation on Lys9)”, the “interaction between TONSL ARD with acidic stretch and H3K9me1 peptide” value in experiment [1] is reported as “unable to detect an interaction”.
